Patent publication US20250326765A1, “PDE4B INHIBITOR AND USE THEREOF” (XIZANG HAISCO PHARMACEUTICAL CO., LTD., priority 2022, published 2025)

Tests used:
PDE4D2 = molecular target: T1, PDE4D2 (Homo sapiens, UniProt Q08499); experiment: Effect of compounds on PDE4D2 activity (fluorescence polarization kit); format: biochemical; conditions: class symbols
T1 construct: purchased BPS Bioscience 60345
Method in brief: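 PDE4D2 (0.068 ng/well final) pre-incubated 15 min at room temperature with serially diluted compound, then […] FAM-cAMP (final) added for 30 min. Binding Agent added for 1 h before fluorescence polarization readout (Ex 485/Em 520 nm, mP). Inhibition derived against positive and negative control wells; IC50 from concentration-inhibition data.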

[1] = Pharmacokinetic test in beagle dogs; format: in vivo
Method: 6.1 Experimental animals: male beagle dogs, about 8-11 kg, 6 beagle dogs/compound, purchased from Beijing Marshall Biotechnology Co., Ltd.
6.2 Experimental method: On the day of the experiment, 18 beagle dogs were randomly grouped according to their body weights. The animals were fasted with water available for 12-14 h one day before administration and fed 4 h after administration. Administration was carried out according to Table 8.
Before and after administration, 1 ml of blood was taken from the jugular vein or limb vein and placed in an EDTAK2 centrifuge tube. Centrifugation was carried out at 5000 rpm at 4° C. for 10 min, and plasma was collected. The blood collection time points for the intravenous group and intragastric group were both 0 min, 5 min, 15 min, 30 min, 1 h, 2 h, 4 h, 6 h, 8 h, 10 h, 12 h, 24 h, 48 h, and 72 h. Before analysis and detection, all the samples were stored at −80° C., and the samples were subjected to quantitative analysis using LC-MS/MS.

[2] = Pharmacokinetic test in monkeys; format: in vivo, cynomolgus monkeys
Method: Experimental animals: Male cynomolgus monkeys, 3-5 kg, 3-6 years old, 6 monkeys/compound. Purchased from Suzhou Xishan Biotechnology Inc.
Experimental method: On the day of the experiment, 12 monkeys were randomly grouped according to their body weights. The animals were fasted with water available for 14-18 h one day before administration and fed 4 h after administration.
Before and after administration, 1.0 mL of blood sample was taken from the limb vein and placed in an EDTAK2 centrifuge tube. Centrifugation was carried out at 5000 rpm at 4° C. for 10 min, and plasma was collected. The blood collection time points for the intravenous group were 0 min, 5 min, 15 min, 30 min, 1 h, 2 h, 4 h, 6 h, 8 h, 10 h, 12 h, and 24 h. Before analysis and detection, all the samples were stored at −80° C., and the samples were subjected to quantitative analysis using LC-MS/MS.

[3] = Pharmacokinetic test in mice; format: in vivo, ICR mice
Method: 5.1 Experimental animals: Male ICR mice, 20-25 g, 6 mice/compound. Purchased from Chengdu Ddossy Experimental Animals Co., Ltd.
5.2 Experimental design: On the day of the experiment, 42 ICR mice were randomly grouped according to their body weights. The animals were fasted with water available for 12-14 h one day before administration and fed 4 h after administration.
Before and after administration, 0.06 mL of blood was taken from the orbit under isoflurane anesthesia and placed in an EDTAK2 centrifuge tube for centrifugation at 5000 rpm at 4-C for 10 min, followed by plasma collection. The blood collection time points for the intravenous group and intragastric group were both 0 m, 5 mi, 15 mi, 30 mi, 1 h, 2 h, 4 h, 6 h, 8 h, and 24 h. Before analysis and detection, all the samples were stored at −80° C., and the samples were subjected to quantitative analysis using LC-MS/MS.

[4] = male, dog, iv, plasma, i.v. (1 mg/kg)
[5] = male, dog, po, plasma, i.g. (5 mg/kg)
[6] = male, cynomolgus monkey, iv, plasma, i.v. (1 mg/kg)
[7] = male, ICR, mouse, iv, plasma, i.v. (5 mg/kg)
[8] = male, ICR, mouse, po, plasma, i.g. (10 mg/kg)

T1 sequence (Q08499 303-809): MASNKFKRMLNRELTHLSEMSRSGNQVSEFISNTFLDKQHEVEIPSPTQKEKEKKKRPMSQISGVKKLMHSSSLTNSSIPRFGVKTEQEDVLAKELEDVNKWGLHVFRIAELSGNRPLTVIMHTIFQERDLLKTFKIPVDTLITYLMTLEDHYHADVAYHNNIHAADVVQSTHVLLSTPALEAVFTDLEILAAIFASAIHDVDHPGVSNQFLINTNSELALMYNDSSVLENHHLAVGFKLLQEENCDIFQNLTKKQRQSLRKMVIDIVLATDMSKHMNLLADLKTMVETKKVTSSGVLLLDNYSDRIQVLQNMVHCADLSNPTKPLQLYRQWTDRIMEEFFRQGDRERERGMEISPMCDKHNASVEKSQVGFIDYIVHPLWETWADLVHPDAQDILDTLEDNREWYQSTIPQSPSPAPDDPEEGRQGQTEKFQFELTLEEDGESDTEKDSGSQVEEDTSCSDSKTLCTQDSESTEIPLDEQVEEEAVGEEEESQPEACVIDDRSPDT

| IC50 (PDE4D2) [nM] | F ([1]; i.g. (5 mg/kg)) [%] | AUC(0-t) [1, 4] [ng·h/mL] | clearance [1, 4] [mL/min/kg] | half-life [1, 4] [min] | Vd ([1]; male, dog, iv, plasma, i.v. (1 mg/kg), read-out: Vdss) [L/kg] | AUC(0-t) [1, 5] [ng·h/mL] | half-life [1, 5] [min] | F ([2]; i.g. (3 mg/kg)) [%] | AUC(0-t) [2, 6] [ng·h/mL] | clearance [2, 6] [mL/min/kg] | Vd ([2]; male, cynomolgus monkey, iv, plasma, i.v. (1 mg/kg), read-out: Vdss) [L/kg] | AUC(0-t) ([2]; male, cynomolgus monkey, po, plasma, i.g. (3 mg/kg)) [ng·h/mL] | F ([3]; i.g. (10 mg/kg)) [%] | AUC(0-t) [3, 7] [ng·h/mL] | clearance [3, 7] [mL/min/kg] | half-life [3, 7] [min] | Vd ([3]; male, ICR, mouse, iv, plasma, i.v. (5 mg/kg), read-out: Vdss) [L/kg] | AUC(0-t) [3, 8] [ng·h/mL] | half-life [3, 8] [min] | SMILES |
| --- | --- | --- | --- | --- | --- | --- | --- | --- | --- | --- | --- | --- | --- | --- | --- | --- | --- | --- | --- | --- |
| < 10 | ≥98 | 7070 ± 3250 | 2.69 ± 1.7 | 351 ± 37.8 | 0.957 ± 0.37 | 26100 ± 11900 | 443 ± 72 | 30.9 ± 13 | 8550 ± 664 | 1.95 ± 0.15 | 0.888 ± 0.16 | 7930 ± 3240 |  |  |  |  |  |  |  | [O-][S@+]1CCc2nc(N3C[C@H]4CN(c5ccc6c(c5)CC6)C[C@H]4C3)nc(NC3(CO)CCC3)c21 [Compound 31] |
| < 10 |  |  |  |  |  |  |  |  |  |  |  |  | ≥98 | 6000 ± 1090 | 7.03 ± 1.1 | 200 ± 18 | 1.3 ± 0.086 | 26900 ± 3910 | 258 ± 41.4 | C#Cc1cnc(C2=CCN(c3nc4c(c(NC5(CO)CCC5)n3)[S+]([O-])CC4)CC2)nc1 (stereo not drawn) [Compound 37] |
